Source: ChEMBL document CHEMBL5500404, “Discovery and Development of NLRP3 Inhibitors Targeting the LRR Domain to Disrupt NLRP3-NEK7 Interaction for the Treatment of Rheumatoid Arthritis” (J Med Chem, 2024)
Activity calls are given as the source filed them. The rule behind the calls is not given here.

Columns and labels:
[1] = Cytotoxicity against human THP-1 cells assessed as cellular proliferation inhibition measured after 48 hrs by MTT assay; assay type: toxicity, cell-based
Rattus norvegicus = assay: Anti-inflammatory activity against complete Freund's adjuvant (CFA)-induced arthritis rat model assessed as synovial hyperplasia in rat synovium from the left rear ankle at 10 mg/kg, ip treated after 17 days of CFA challenge measured after 18 days (day 17 to 34) by H and E staining based assay relative to model group; assay type: functional, organism-based; settings: time 18.0 day
THP-M = assay: Inhibition of NLRP3 and […] protein-protein interaction in human THP-M cells assessed as suppression activation of NLRP3 inflammasome by affecting ASC oligomerization at 10 to 50 uM pretreated for 24 hrs followed by stimulated with LPS for 3 hrs and ATP for 1 hr by co-IP analysis; assay type: cell-based; settings: dose 10-50 µM, time 28.0 hrs
[2] = Half life in Sprague-Dawley rat at 20 mg/kg, IG measured upto 1440 mins by LC-MS/MS analysis; assay type: ADME, organism-based; settings: in vivo, po
[3] = Tmax in Sprague-Dawley rat at 20 mg/kg, IG measured upto 1440 mins by LC-MS/MS analysis; assay type: ADME, organism-based; settings: in vivo, po
[4] = Cmax in Sprague-Dawley rat at 20 mg/kg, IG measured upto 1440 mins by LC-MS/MS analysis; assay type: ADME, organism-based; settings: in vivo, po
[5] = AUC (0 to t) in Sprague-Dawley rat at 20 mg/kg, IG measured upto 1440 mins by LC-MS/MS analysis; assay type: ADME, organism-based; settings: in vivo, po
[6] = AUC (0 to infinity) in Sprague-Dawley rat at 20 mg/kg, IG measured upto 1440 mins by LC-MS/MS analysis; assay type: ADME, organism-based; settings: in vivo, po
[7] = MRT (0 to t) in Sprague-Dawley rat at 20 mg/kg, IG measured upto 1440 mins by LC-MS/MS analysis; assay type: ADME, organism-based; settings: in vivo, po
[8] = MRT (0 to infinity) in Sprague-Dawley rat at 20 mg/kg, IG measured upto 1440 mins by LC-MS/MS analysis; assay type: ADME, organism-based; settings: in vivo, po
[9] = Apparent clearance during terminal phase in Sprague-Dawley rat at 20 mg/kg, IG measured upto 1440 mins by LC-MS/MS analysis; assay type: ADME, organism-based; settings: in vivo, po
[10] = Apparent volume of distribution during terminal phase in Sprague-Dawley rat at 20 mg/kg, IG measured upto 1440 mins by LC-MS/MS analysis; assay type: ADME, organism-based; settings: in vivo, po, read-out: Vz/F
[11] = Half life in Sprague-Dawley rat at 20 mg/kg, ip measured upto 720 mins by LC-MS/MS analysis; assay type: ADME, organism-based; settings: in vivo
[12] = AUC (0 to t) in Sprague-Dawley rat at 20 mg/kg, ip measured upto 720 mins by LC-MS/MS analysis; assay type: ADME, organism-based; settings: in vivo
[13] = AUC (0 to infinity) in Sprague-Dawley rat at 20 mg/kg, ip measured upto 720 mins by LC-MS/MS analysis; assay type: ADME, organism-based; settings: in vivo, 12 h
[14] = MRT (0 to t) in Sprague-Dawley rat at 20 mg/kg, ip measured upto 720 mins by LC-MS/MS analysis; assay type: ADME, organism-based; settings: in vivo
[15] = MRT (0 to infinity) in Sprague-Dawley rat at 20 mg/kg, ip measured upto 720 mins by LC-MS/MS analysis; assay type: ADME, organism-based; settings: in vivo
[16] = Apparent volume of distribution during terminal phase in Sprague-Dawley rat at 20 mg/kg, ip measured upto 720 mins by LC-MS/MS analysis; assay type: ADME, organism-based; settings: in vivo, read-out: Vz/F
[17] = Bioavailability in Sprague-Dawley rat at 20 mg/kg, ip measured upto 720 mins by LC-MS/MS analysis; assay type: ADME, organism-based; settings: in vivo

SMILES	IC50 at 48 h [1] [µM]	further results
COCCNC(=O)c1ccc(Cn2c(SCC3CCCCC3)nc3ccncc32)cc1	96.3	
COCCCNC(=O)c1ccc(Cn2c(SCc3cccc(C)c3)nc3ccncc32)cc1	> 100	
CC(C)(C)c1ccc(Cn2c(SCC3CCCCC3)nc3ccncc32)cc1	93.5	
COCCCNC(=O)c1ccc(Cn2c(SCC3CCC3)nc3ccncc32)cc1	> 100	
COCCCNC(=O)c1ccc(Cn2c(SCc3ccc(F)nc3)nc3ccncc32)cc1	> 100	
COCCCNC(=O)c1ccc(Cn2c(SCc3ccc(F)cc3)nc3ccncc32)cc1	> 100	
CCC(=O)Nc1ccc(Cn2c(SCC3CCCCC3)nc3ccncc32)cc1	> 100	
COc1ccc(-c2[nH]c3ccccc3c2SCCNC(=O)c2ccc(S(=O)(=O)N3CCOCC3)cc2)cc1	> 100	
COCCCNC(=O)c1ccc(Cn2c(SCc3ccccc3)nc3ccncc32)cc1	> 100	
COC(=O)c1ccc(Cn2c(SCC3CCCCC3)nc3ccncc32)cc1	> 100	
COCCCNC(=O)c1ccc(Cn2c(SCC3CC3)nc3ccncc32)cc1	> 100	
CC(=O)Nc1ccc(Cn2c(SCC3CCCCC3)nc3ccncc32)cc1	> 100	
CCCc1ccc(Cn2c(SCC3CCCCC3)nc3ccncc32)cc1	87.6	
CCNC(=O)c1ccc(Cn2c(SCC3CCCCC3)nc3ccncc32)cc1	> 100	
COCCCNC(=O)c1ccc(Cn2c(SCc3ccc(C(F)(F)F)cc3)nc3ccncc32)cc1	51.1	
CCCNC(=O)c1ccc(Cn2c(SCC3CCCCC3)nc3ccncc32)cc1	> 100	
O=C(c1ccccc1)c1ccc(Cn2c(SCC3CCCCC3)nc3ccncc32)cc1	72.4	
COCCCNC(=O)c1ccc(Cn2c(SCc3ccccn3)nc3ccncc32)cc1	> 100	
COCCCNC(=O)c1ccc(Cn2c(SCC=C(C)C)nc3ccncc32)cc1	> 100	
COC(=O)CCCCn1c(SCC2CCCCC2)nc2ccncc21	> 100	
CCCCNC(=O)c1ccc(Cn2c(SCC3CCCCC3)nc3ccncc32)cc1	> 100	
CC(C)(O)c1coc(S(=O)(=O)NC(=O)Nc2c3c(cc4c2CCC4)CCC3)c1	> 100	Activity (Rattus norvegicus): Active
COCCCNC(=O)c1ccc(Cn2c(SCc3ccccc3F)nc3ccncc32)cc1	53.3	
COc1ccc(N2CCN(CCCNC(=O)c3nnc(Cc4ccc(F)cc4)o3)CC2)cc1	> 100	
COCCCNC(=O)c1ccc(Cn2c(SCc3cccc(F)c3)nc3ccncc32)cc1	> 100	
CCOC(=O)c1ccc(Cn2c(SCC3CCCCC3)nc3ccncc32)cc1	> 100	inhibition (THP-M): Active
COCCCNC(=O)c1ccc(Cn2c(SCc3ccc(C)cc3)nc3ccncc32)cc1	> 100	

SMILES	IC50 at 48 h [1] [µM]	further results
COCCCNC(=O)c1ccc(Cn2c(SCc3ccncc3)nc3ccncc32)cc1	> 100	
NC(=O)c1ccc(Cn2c(SCC3CCCCC3)nc3ccncc32)cc1	> 100	
CCCC(=O)Nc1ccc(Cn2c(SCC3CCCCC3)nc3ccncc32)cc1	> 100	
COCCCNC(=O)c1ccc(Cn2c(SCc3ccc(Br)cc3)nc3ccncc32)cc1	90.3	
COc1ccc(C2=NN(C(=O)CSc3nnc(CNC(=O)COc4ccccc4)n3CCc3ccccc3)C(c3ccc(OC)cc3)C2)cc1 (configuration not stated)	> 100	
COCCCNC(=O)c1ccc(Cn2c(SCc3cc(F)cc(F)c3)nc3ccncc32)cc1	> 100	
COCCCNC(=O)c1ccc(Cn2c(SCc3ccc([N+](=O)[O-])cc3)nc3ccncc32)cc1	> 100	
COCCCNC(=O)c1ccc(Cn2c(SCc3ccc(OC)cc3)nc3ccncc32)cc1	> 100	
CC(C)c1ccc(Cn2c(SCC3CCCCC3)nc3ccncc32)cc1	77.3	
COCCCNC(=O)c1ccc(Cn2c(SCC3CCCC3)nc3ccncc32)cc1	> 100	
CCOCCCNC(=O)c1ccc(CSc2nc3ccncc3n2Cc2cccc(OC)c2)cc1	> 100	
COc1ccc(N2CCN(CCCNC(=O)COCc3cc(-c4ccc5c(c4)OCO5)on3)CC2)cc1	85.2	
COCCCNC(=O)c1ccc(Cn2c(SCc3cccc([N+](=O)[O-])c3)nc3ccncc32)cc1	> 100	
CC(C)OCCCn1c(=O)c2ccccc2n2c(CCC(=O)NCc3ccccc3)nnc12	65.5	
CNC(=O)c1ccc(Cn2c(SCC3CCCCC3)nc3ccncc32)cc1	> 100	
CCCNC(=O)CCCCn1c(=O)c2ccccc2n(CC(=O)NCc2ccc(F)cc2)c1=O	> 100	
COCCCNC(=O)c1ccc(Cn2c(SCc3cccnc3)nc3ccncc32)cc1	> 100	
COCCCNC(=O)c1ccc(Cn2c(SCc3ccc(Cl)cc3)nc3ccncc32)cc1	23	
O=C(c1ccc(Cn2c(SCC3CCCCC3)nc3ccncc32)cc1)N1CCCC1	> 100	
CNC(=O)CCn1c(SCC2CCCCC2)nc2ccncc21	> 100	
CCOCCCNC(=O)c1ccc(CSc2nc3ccncc3n2Cc2cccc(F)c2)cc1	> 100	
COCCCNC(=O)c1ccc(Cn2c(SCc3cc(C)cc(C)c3)nc3ccncc32)cc1	> 100	
O=C(c1ccc(Cn2c(SCC3CCCCC3)nc3ccncc32)cc1)N1CCNCC1	> 100	half-life [2]: 3.93 h; Tmax [3]: 0.245 h; Cmax [4]: 280 ng/mL; AUC(0-t) at 24 h [5]: 733 ng·h/mL; AUC(0-inf) [6]: 906 ng·h/mL; MRT last at 24 h [7]: 2.89 h; MRT inf [8]: 4.86 h; CL/F [9]: 500 mL/min/kg; Vd/F [10]: 193 L/kg; half-life [11]: 1.11 h; AUC(0-t) at 12 h [12]: 1320 ng·h/mL; AUC [13]: 103322 ng·min/mL; MRT last at 12 h [14]: 0.615 h; MRT inf [15]: 1.32 h; Vd/F [16]: 4.96 L/kg; bioavailability [17]: 13.2%
CCCCCNC(=O)c1ccc(Cn2c(SCC3CCCCC3)nc3ccncc32)cc1	87.5	
O=C(c1ccc(Cn2c(SCC3CCCCC3)nc3ccncc32)cc1)N1CCOCC1	> 100	
CCOc1ccc(CCNC(=O)Cn2nc(-c3ccc(C)c(S(=O)(=O)N4CCCCC4)c3)c3ccccc3c2=O)cc1OCC	> 100	
COCCCNC(=O)c1ccc(Cn2c(SCc3ccc(C#N)cc3)nc3ccncc32)cc1	> 100	
